This is an account of results in PMC8001995, “Sea Anemone Kunitz-Type Peptides Demonstrate Neuroprotective Activity in the 6-Hydroxydopamine Induced Neurotoxicity Model” (Biomedicines, 2021).

Molecules are shown by their SMILES.

Experiment [1] in a line: DPPH radical scavenging cell free assay. The following applies: 10 µM compound, 30 min, absorbance 520 nm, versus MeOH control, mean ± SEM of three independent replicates. As to the method: The 2,2-diphenyl-1-picryl-hydrazyl-hydrate (DPPH) radical scavenging activity was tested as described previously. The compound solutions (120 µL) were dispensed into wells of a 96-well microplate. The DPPH (Sigma-Aldrich, Germany) was dissolved in MeOH at concentration of 7.5 µM and the solution (30 µL) was added to each well. The concentrations of tested compounds in the mixtures were 10 µM. The mixtures were shaken and left for 30 min. The absorbance of the resulting solutions was measured at λ = 520 nm with a MultiscanFC plate reader (Thermo Fisher Scientific, Waltham, MA, USA). The scavenging of the DPPH radical in comparison with control (MeOH) (%) was calculated for each compound. Ascorbic acid at 10 µM was used as positive control.
Background: Loss of DPPH colour is used to gauge radical scavenging.

Experiment [2] deals with Neuro-2a cells. Briefly: Intracellular ROS level, DCFH-DA probe, 6-OHDA-treated cells. The class given is cell-based, murine. The following applies: 25 µM 6-OHDA 30 min, no peptide. As to the method:
(§1) Neuro-2a neuroblastoma cells (ATCC® CCL-131™) were obtained from American Type Culture Collection (Manassas, VA, USA). The cells were cultivated in DMEM medium (BioloT, St. Petersburg, Russia) supplemented with 10% of fetal bovine serum (BioloT, Russia) and 1% penicillin/streptomycin (BioloT, St. Petersburg, Russia) at 37 °C and 5% CO2. Initially, cells were incubated in cultural flasks until sub-confluent (~80%). For testing, Neuro-2a cells were seeded in 96-well plates and experiments were started after 24 h.
The level of intracellular ROS was measured using the ROS sensitive dye, 2,7-dichloro-fluorescein diacetate (DCFH-DA), as a probe. In brief, Neuro-2a cells were seeded in 96-well plates at 1 × 10^4 cells/well, culturing in the presence or absence of various concentrations of tested peptides for 1 h, and then 6-OHDA (25 µM) was added in each well for 30 min at 37 °C with 5% CO2. […] The fluorescence of 2,7-dichlorofluorescein (DCF) was detected with PHERAstar FS fluorescent plate reader (BMG Labtech, Ortenberg, Germany) at λex = 485 nm and λem = 518 nm. […] The cytoprotective effect of peptides and the increase in cell viability under their action was calculated as a percentage, taking the cell viability treated with 6-OHDA as 100%.

Experiment [3] has as its system Neuro-2a cells. Briefly: 6-Hydroxydopamine-induced cytotoxicity (neuroprotection), MTT. The format is cell-based, murine. Particulars: 25 µM 6-OHDA 24 h, no peptide; versus control. Here is the method:
as §1
Neuro-2a cells were seeded at 1 × 10^4 cells/well in 96-well plates for studying of neuroprotective activity of peptides. The tested peptides were added to the cell monolayer and cells were incubated at 37 °C for 1 h. Then, the cells were exposed to 6-OHDA (Sigma-Aldrich, St. Louis, MO, USA) at 25 µM for 24 h at 37 °C with 5% CO2. Thereafter, the medium was replaced with clean serum-free medium, and the number of viable cells was determined by MTT assay. Neuro-2a cells were cultured without test compound or neurotoxins as the control group. Results were expressed in percentage of control as the mean ± SEM of three independent replicates.

Take `O=C1O[C@H]([C@@H](O)CO)C(O)=C1O` [Ascorbic acid]: the “Scavenging of DPPH Radicals” value in experiment [1] is reported as 33.8 ± 2.4%.

On to `NCCc1cc(O)c(O)cc1O` [Peptide 6-OHDA, 6-hydroxydopamine], for which the “ROS level in 6-OHDA-treated cells” value in experiment [2] is listed as “up to 130 % to the control level”. Moreover, the “Viability of Neuro-2a cells treated with 6-OHDA” value in experiment [3] stood at 42.6%.
